Experiments:
[1] = Oral glucose tolerance test (OGTT) after local RTX treatment of the intestine; format: in vivo, Sprague-Dawley rats
Source text: (§1) Adult male Sprague-Dawley rats (Harlan, Indianapolis, IN) weighing 280-350 g were used in all the experiments. The animal protocol was approved by the Institutional Animal Care and Use Committee of the Stanford University Medical Center.
(§2) Rats were randomly divided into six groups: 1, vehicle solution treated on the surface of duodenum (n=4); 2, RTX solution treated on the surface of duodenum (n=4); 3, vehicle solution treated on the surface of ileum (1 rat) or colon (1 rat) (n=2); 4, RTX solution treated on the surface of ileum (2 rats) or colon (1 rat) (n=3); 5. Vehicle solution infuse into duodenum (n=2); 6. RTX solution infuse into duodenum (n=3).
Rats were fasted overnight prior to surgery having free access to water. Under 2% isoflurane-induced anesthesia, the abdomen was opened through a midline incision for the duodenum treatment and lower line for ileum or colon treatment. These intestines were exposed and protected with warm saline sponges around the intestine. Procedure 1: RTX application on the surface of intestine: The cotton applicator with RTX((0.32 mM) or vehicle solution were gently applied topically to the outer surface of entire duodenum (about 10 cm from the beginning of the duodenum) for 5 min. Same treatment in ileum and colon groups were applied on about 10 cm long of distal ileum and colon. Procedure 2: RTX or vehicle infused into duodenum: Two atraumatic clamps used to block on beginning and distal of duodenum. 0.8 ml of 0.32 mM RTX or vehicle was infused into duodenum through a glass syringe with a 27 gauge needle. After 30 min the RTX or vehicle solution were withdrawn and the clamps were released. After treatment, the abdominal incisions were closed. […]
Post RTX treatment 1st, 3rd and 7th week all the rats were performed the OGTT. After 17 hours overnight fasting, blood glucose was measured in conscious rats by tail-stick, using a glucose meter (Bayer Healthcare LLC, Mishawaka, IN). OGTT was measured before (baseline) and each 15 minutes for 2 hours after oral gavage glucose (1 g/kg body weight). […]

[2] = Body weight change monitoring after local RTX treatment of the intestine; format: in vivo, Sprague-Dawley rats; design: body weight: unit not given here; conditions: for body weight: mean±s.e.
Source text: as §1, §2
Rats were fasted overnight prior to surgery having free access to water. Under 2% isoflurane-induced anesthesia, the abdomen was opened through a midline incision for the duodenum treatment and lower line for ileum or colon treatment. These intestines were exposed and protected with warm saline sponges around the intestine. Procedure 1: RTX application on the surface of intestine: The cotton applicator with RTX((0.32 mM) or vehicle solution were gently applied topically to the outer surface of entire duodenum (about 10 cm from the beginning of the duodenum) for 5 min. Same treatment in ileum and colon groups were applied on about 10 cm long of distal ileum and colon. Procedure 2: RTX or vehicle infused into duodenum: Two atraumatic clamps used to block on beginning and distal of duodenum. 0.8 ml of 0.32 mM RTX or vehicle was infused into duodenum through a glass syringe with a 27 gauge needle. After 30 min the RTX or vehicle solution were withdrawn and the clamps were released. After treatment, the abdominal incisions were closed.
RTX solution: RTX stock solution: 1 mg RTX+10% ethanol+10% Tween-80 in saline to make 1 μg RTX/μl in stock solution. RTX work solution (0.32 mM): stock RTX solution (0.2 ml)+Saline (0.8 ml); Vehicle (like stock solution without RTX)
The body weight of rats was measured before RTX treatment and each blood glucose testing day.
Data are presented as means±s.e. Data were compared using Student's t-test. Differences were considered significant at <0.05.

C=C(C)[C@]12C[C@@H](C)[C@@]34O[C@](Cc5ccccc5)(O[C@@H]1[C@@H]3C=C(COC(=O)Cc1ccc(O)c(OC)c1)C[C@]1(O)C(=O)C(C)=C[C@@H]41)O2 [RTX, Resiniferatoxin]
glucose tolerance compared with vehicle group (OGTT) ([1]; 0.8 ml of 0.32 mM RTX infused into duodenum, 30 min, 2 hours testing time, all testing days): not significantly different | glucose tolerance compared with vehicle group (OGTT) ([1]; RTX 0.32 mM topically on the surface of duodenum, 5 min, 30 and 45-minute peak levels, 1st, 3rd and 7th week post treatment, P<0.05): better glucose tolerance | glucose tolerance compared with vehicle group (OGTT) ([1]; RTX 0.32 mM topically on the surface of ileum or colon, 2 hours testing time, all testing days): not significantly different | body weight ([2]; RTX infused into duodenum, 1st week post treatment): 102.4±3.0 | body weight ([2]; RTX infused into duodenum, 3rd week post treatment): 123.1±1.6 | body weight ([2]; RTX infused into duodenum, 7th week post treatment): 136.3±2.5 | body weight compared with vehicle group ([2]; RTX infused into duodenum, all measurement days): not significantly different | body weight ([2]; RTX on the surface of duodenum, 1st week post treatment, P<0.05 vs vehicle and vs RTX infusion): 92.0±1.0 | body weight compared with vehicle group ([2]; RTX on the surface of duodenum, 3rd and 7th week post treatment): not significantly different | body weight ([2]; RTX on the surface of duodenum, 3rd week post treatment, P<0.05 vs RTX infusion): 110.5±2.6 | body weight ([2]; RTX on the surface of duodenum, 7th week post treatment, P<0.05 vs RTX infusion): 118.9±0.9 | body weight compared with vehicle group ([2]; RTX on the surface of ileum or colon, all measurement days): not significantly different

Source: patent US20240207208A1, “Treatments for Diabetes Mellitus and Obesity” (The Board of Trustees of the Leland Stanford Junior …, priority 2011, published 2024)
